In article PMC12118337, “Development of a Peptide Inhibitor Targeting the C‐SH2 Domain of the SHP2 Phosphatase” (Chembiochem, 2025):
Read-outs that look alike come from different tables or passages of the source. Each block holds one compound with its values, some of them ahead of it. Non-standard residues stand in square brackets, D forms with d. Residues, ends and D or L forms follow the SMILES beside them. *: point of attachment. F2Pmp = N[C@@H](Cc1ccc(C(F)(F)P(=O)(O)O)cc1)C(=O)O; Pmp = N[C@@H](Cc1ccc(CP(=O)(O)O)cc1)C(=O)O; pY = N[C@@H](Cc1ccc(OP(=O)(O)O)cc1)C(=O)O; AEEA = NCCOCCOCC(=O)O; X1 = O=C(O)C(C(=O)O)*

What was measured:
[1] = target: T1, full‐length SHP2 (Homo sapiens, UniProt Q06124); assay: DiFMUP phosphatase assay, peptide inhibition in the presence of ITIM-[dPEG4]2-ITSM activator; assay type: biochemical; conditions: for inhibitory activity against SHP2, in words: DiFMUP, 0.5 nM FL SHP2 activated with 26 nM tandem peptide, compared to peptide 21
T1 construct: 1–525) proteins were prepared; His-SUMO3 (pETM11-SUMO3 vector) (N, cleaved yes); made in house; host or cells: E. coli BL21(DE3)
T1 sequence (Q06124 1-525): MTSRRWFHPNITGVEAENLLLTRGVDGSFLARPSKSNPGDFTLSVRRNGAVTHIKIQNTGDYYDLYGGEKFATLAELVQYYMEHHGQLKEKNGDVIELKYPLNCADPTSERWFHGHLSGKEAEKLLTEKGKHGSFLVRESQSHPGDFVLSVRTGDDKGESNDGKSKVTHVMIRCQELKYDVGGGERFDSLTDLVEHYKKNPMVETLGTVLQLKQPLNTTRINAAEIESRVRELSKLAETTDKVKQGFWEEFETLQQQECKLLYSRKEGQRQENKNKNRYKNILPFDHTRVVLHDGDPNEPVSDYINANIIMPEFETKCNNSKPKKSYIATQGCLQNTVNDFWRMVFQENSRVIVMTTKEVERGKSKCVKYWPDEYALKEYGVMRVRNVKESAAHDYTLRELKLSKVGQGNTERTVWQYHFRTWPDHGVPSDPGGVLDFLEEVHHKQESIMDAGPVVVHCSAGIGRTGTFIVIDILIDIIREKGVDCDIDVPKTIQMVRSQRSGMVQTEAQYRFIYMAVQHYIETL
Experimental: (§1) 6. DiFMUP phosphatase assays
SHP2 dephosphorylation of the fluorogenic substrate 6,8-difluoro-4-methylumbiliferyl phosphate (DiFMUP) was measured to evaluate the effect of acetylated peptides on SHP2 activity. Final concentrations of 0.5 nM full-length SHP2, 200 µM DiFMUP (Invitrogen) and 26 nM bisphosphorylated tandem ITIM-[dPEG4]2-ITSM (CASLO ApS) were used, unless stated otherwise, per well in 96-well plates (OptiPlate-96 F Black; PerkinElmer). For peptide activation assays, each well contained 60 µL of reaction buffer (50 mM HEPES pH 7.6, 150 mM NaCl, 1 mM EDTA, 0.05% Tween 20, freshly added 5 mM DTT), 10 µL of SHP2 and 20 µL of the test peptide (0.096 nM – 51.2 µM final concentration). For peptide inhibition assays in the presence of a SHP2 activator, each well contained 40 µL of reaction buffer (50 mM HEPES pH 7.6, 150 mM NaCl, 1 mM EDTA, 0.05% Tween 20, freshly added 5 mM DTT), 10 µL of SHP2 and 40 µL of previously mixed bisphosphorylated tandem ITIM-[dPEG4]2-ITSM activator and test peptide (0.096 nM – 51.2 µM or 0.376 nM – 200 µM final concentration). To obtain the maximal activity, 10 µL of SHP2 and 20 µL of bisphosphorylated tandem ITIM-[dPEG4]2-ITSM activator was added to 60 µL of buffer. Samples were incubated for 20 minutes at room temperature and then 10 µL of DiFMUP was added to each sample, to give a final volume of 100 µL per well. For background subtraction, 10 µL of DiFMUP was added to 80 µL of buffer. The fluorescence was immediately measured on a Synergy H1 Microplate Reader (BioTek) with the excitation and emission monitored at 358 nm and 452 nm, respectively, over 30 minutes. Data were analysed in Excel 2016 by subtracting background values from emission values and calculating the slope of the emission profiles. Data were then further analysed in GraphPad Prism 6 by either: 1) plotting the slope against the peptide concentration and fitting the data to a variable slope model of non-linear regression; or 2) normalising the data to the maximal activity (SHP2 in the presence of ITIM-[dPEG4]2-ITSM; set to 100% activity) to obtain the % activity, plotting the % activity against the peptide concentration and fitting the data to a variable slope model of non-linear regression to obtain the IC50 values. Data are from two or three independent experiments, each performed in […]

[2] = target: T1, full‐length SHP2; assay: DiFMUP phosphatase assay, peptide activation (no activator); assay type: biochemical; conditions: 0.5 nM full-length SHP2, no tandem activator, peptide 0.096 nM – 51.2 µM
Experimental: as §1
SHP2 dephosphorylation of the fluorogenic substrate 6,8-difluoro-4-methylumbiliferyl phosphate (DiFMUP) was measured to evaluate the effect of acetylated peptides on SHP2 activity. Final concentrations of 0.5 nM full-length SHP2, 200 µM DiFMUP (Invitrogen) and 26 nM bisphosphorylated tandem ITIM-[dPEG4]2-ITSM (CASLO ApS) were used, unless stated otherwise, per well in 96-well plates (OptiPlate-96 F Black; PerkinElmer). For peptide activation assays, each well contained 60 µL of reaction buffer (50 mM HEPES pH 7.6, 150 mM NaCl, 1 mM EDTA, 0.05% Tween 20, freshly added 5 mM DTT), 10 µL of SHP2 and 20 µL of the test peptide (0.096 nM – 51.2 µM final concentration). For peptide inhibition assays in the presence of a SHP2 activator, each well contained 40 µL of reaction buffer (50 mM HEPES pH 7.6, 150 mM NaCl, 1 mM EDTA, 0.05% Tween 20, freshly added 5 mM DTT), 10 µL of SHP2 and 40 µL of previously mixed bisphosphorylated tandem ITIM-[dPEG4]2-ITSM activator and test peptide (0.096 nM – 51.2 µM or 0.376 nM – 200 µM final concentration). […] The fluorescence was immediately measured on a Synergy H1 Microplate Reader (BioTek) with the excitation and emission monitored at 358 nm and 452 nm, respectively, over 30 minutes. Data were analysed in Excel 2016 by subtracting background values from emission values and calculating the slope of the emission profiles. […]

[3] = test system: full‐length SHP2 or isolated PTP domain; assay: EnzChek phosphate assay (peptide as substrate); assay type: biochemical; conditions: 50 nM full-length SHP2 or PTP domain, peptide 25–800 µM, absorbance 360 nm, three independent experiments
Experimental: 7. EnzChek phosphate assays
The EnzChek Phosphate Assay Kit (Thermo Fisher Scientific), which measures the release of inorganic phosphate generated from an enzymatic reaction, was used to evaluate Ac-ITSM(pTyr) and acetylated peptide 21 as potential substrates of SHP2. A reaction mixture consisting of 43 µL of dH2O, 0.5 µL of 1 M DTT ([…]), 5 µL of 20X reaction buffer, 20 µL of 2-amino-6-mercapto-7-methylpurine riboside (MESG) solution, 1.5 µL of purine nucleoside phosphorylase (PNP) solution and 10 µL of 0.5 µM full-length SHP2 or PTP domain (50 nM final concentration) was added to each well in a 96-well plate (SpectraPlate-96 MB; PerkinElmer). Samples were incubated for 10 minutes at room temperature and then 20 µL of Ac-ITSM(pTyr) or peptide 21 (final concentrations: 800 µM, 400 µM, 200 µM, 100 µM, 25 µM) was added to give a final volume of 100 µL per well. The absorbance was immediately measured at 360 nm on a Synergy H1 Microplate Reader (BioTek).
Data were analysed in GraphPad Prism 6 by plotting the absorbance against the peptide concentration. Data are from three independent experiments, each performed in technical triplicates.

[4] = test system: WT Jurkat T cells; conditions: CCK-8, 50–200 μM, 24 h; four independent experiments in technical triplicates
Experimental: (§2) three or four independent experiments with 4 – 7 images taken per well in each […]
(§3) 7. Peptide cytotoxicity assays
(§4) The cytotoxicity of acetylated peptide 29 in WT Jurkat T cells and WT HeLa cells was determined using Cell Counting Kit-8 (CCK-8). Jurkat cells were seeded at 5 x 10^4 cells/well and HeLa cells were seeded at 5 x 10^3 cells/well in 96-well flat-bottom cell culture plates (Greiner Bio-One). HeLa cells were allowed to adhere overnight at 37°C […]
(§5) 200 µM for Jurkat cells and 100 µM, 200 µM or 300 µM for HeLa cells in a total volume of 100 µL, each concentration in triplicate wells. In addition, three wells containing media alone as the background, three wells containing vehicle (H2O) treated cells as the negative control and three wells containing cells treated with 5% DMSO (Jurkat cells) or 20% DMSO (HeLa cells) to induce cell death as the positive control, were included in the plate. Cells were incubated with the peptide or controls for 24 hours (Jurkat cells) or 16 hours (HeLa cells) at 37°C and 5% CO2, then 10 µL of CCK-8 solution (Sigma-Aldrich) was added to each well and incubated for 1.5 hours at 37°C

[5] = test system: WT HeLa cells; conditions: CCK-8, 100–300 µM, 16 h; three or four independent experiments in technical triplicates
Experimental: as §2, §3, §4, §5

[6] = target: T2, SHP2 C‐SH2 domain (Homo sapiens, UniProt Q06124); conditions: ITC, previously reported; read-out: previously reported ITC K D, C‐SH2; cited from earlier work
T2 construct: SHP2 N-SH2 domain (1–105), C-SH2 domain (106–220), PTP domain (224–541) and; His6 (pETM22 vector) (N, cleaved yes); made in house; host or cells: E. coli BL21(DE3)
T2 sequence (Q06124 106-220): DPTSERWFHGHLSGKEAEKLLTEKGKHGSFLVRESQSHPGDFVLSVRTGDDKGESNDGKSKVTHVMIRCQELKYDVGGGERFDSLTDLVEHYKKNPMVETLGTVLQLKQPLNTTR

[7] = target: T3, SHP2 N‐SH2 domain (Homo sapiens, UniProt Q06124); conditions: ITC, previously reported; read-out: previously reported ITC K D, N‐SH2; cited from earlier work
T3 construct: SHP2 N-SH2 domain (1–105), C-SH2 domain (106–220), PTP domain (224–541) and; His6 (pETM22 vector) (N, cleaved yes); made in house; host or cells: E. coli BL21(DE3)
T3 sequence (Q06124 1-105): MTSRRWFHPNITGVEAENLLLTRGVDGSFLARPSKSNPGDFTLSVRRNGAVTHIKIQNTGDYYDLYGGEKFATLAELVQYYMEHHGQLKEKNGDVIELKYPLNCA

[8] = 0.5 nM full-length SHP2 activated with 26 nM bisphosphorylated ITIM-[dPEG4]2-ITSM, 200 µM DiFMUP, pH 7.6, 20 min pre-incubation at room temperature, two or three independent experiments in technical triplicates, read-out: IC50 ± SEM (DiFMUP activity assay)

IC50 [1, 8]: 1050 ± 502 nM
Compound: CC[C@H](C)[C@H](NC(=O)[C@@H](NC(=O)[C@H](C)NC(=O)[C@H](Cc1ccc(OP(=O)(O)O)cc1)NC(=O)[C@H](CCC(=O)O)NC(=O)[C@@H](NC(=O)[C@H](CCC(N)=O)NC(C)=O)[C@@H](C)O)[C@@H](C)O)C(=O)N[C@@H](CCCCN)C(=O)N[C@@H](Cc1c[nH]cn1)C(=O)N1CCC[C@H]1C(N)=O [peptide 21] (Ac-QTE[pY]ATIKHP-NH2)
SHP2 phosphatase activity with peptide alone (activation) [2]: activated SHP2 only minimally at the highest peptide concentration
suitability as substrate of SHP2 (dephosphorylation) [3]: not a good SHP2 substrate

Compound: CC[C@H](C)[C@H](NC(=O)[C@@H](NC(=O)[C@H](C)NC(=O)[C@H](Cc1ccc(CP(=O)(O)O)cc1)NC(=O)[C@H](CCC(=O)O)NC(=O)[C@@H](NC(=O)[C@H](CCC(N)=O)NC(C)=O)[C@@H](C)O)[C@@H](C)O)C(=O)N[C@@H](CCCCN)C(=O)N[C@@H](Cc1c[nH]cn1)C(=O)N1CCC[C@H]1C(N)=O [peptide 23] (Ac-QTE[Pmp]ATIKHP-NH2)
IC50 ± SEM (DiFMUP activity assay) ([1]; 0.5 nM full-length SHP2 activated with 26 nM bisphosphorylated ITIM-[dPEG4]2-ITSM, 200 µM DiFMUP, pH 7.6, 20 min pre-incubation at room temperature, two or three independent experiments in technical triplicates): No inhibition
inhibitory activity against SHP2, in words [1]: loss of inhibitory activity

Compound: CC[C@H](C)[C@H](NC(=O)[C@@H](NC(=O)[C@H](C)NC(=O)[C@H](Cc1ccc(OC(C(=O)O)C(=O)O)cc1)NC(=O)[C@H](CCC(=O)O)NC(=O)[C@@H](NC(=O)[C@H](CCC(N)=O)NC(=O)COCCOCCNC(=O)[C@@H](CCCNC(=N)N)NC(=O)[C@@H](CCCNC(=N)N)NC(=O)[C@@H](CCCNC(=N)N)NC(=O)[C@@H](CCCNC(=N)N)NC(=O)[C@@H](CCCNC(=N)N)NC(=O)[C@@H](CCCNC(=N)N)NC(=O)[C@@H](CCCNC(=N)N)NC(=O)[C@@H](CCCNC(=N)N)NC(C)=O)[C@@H](C)O)[C@@H](C)O)C(=O)N[C@@H](CCCCN)C(=O)N[C@@H](Cc1c[nH]cn1)C(=O)N1CCC[C@H]1C(N)=O [peptide 29] (Ac-[dR][dR][dR][dR][dR][dR][dR][dR][AEEA]QTEY(X1)ATIKHP-NH2)
cytotoxicity (viability) in Jurkat cells [4]: only started showing a trend toward some toxicity at the highest concentration of 200 μM
cytotoxicity (viability) in HeLa cells [5]: no toxicity

Compound: PD‐1 ITSM: PD‐1 immunoreceptor tyrosine‐based switch motif phosphopeptide of the authors' earlier work (ref 11) (EQTEYATIVFP; phospho-Tyr5 (pTyr))
Kd [6]: 13 nM
Kd [7]: 167 nM

IC50 [1, 8]: 7820 ± 1950 nM
Compound: CC[C@H](C)[C@H](NC(=O)[C@@H](NC(=O)[C@H](C)NC(=O)[C@H](Cc1ccc(OC(C(=O)O)C(=O)O)cc1)NC(=O)[C@H](CCC(=O)O)NC(=O)[C@@H](NC(=O)[C@H](CCC(N)=O)NC(C)=O)[C@@H](C)O)[C@@H](C)O)C(=O)N[C@@H](CCCCN)C(=O)N[C@@H](Cc1c[nH]cn1)C(=O)N1CCC[C@H]1C(N)=O [peptide 24] (Ac-QTEY(X1)ATIKHP-NH2)

Compound: CC[C@H](C)[C@H](NC(=O)[C@@H](NC(=O)[C@H](C)NC(=O)[C@H](Cc1ccc(C(F)(F)P(=O)(O)O)cc1)NC(=O)[C@H](CCC(=O)O)NC(=O)[C@@H](NC(=O)[C@H](CCC(N)=O)NC(C)=O)[C@@H](C)O)[C@@H](C)O)C(=O)N[C@@H](CCCCN)C(=O)N[C@@H](Cc1c[nH]cn1)C(=O)N1CCC[C@H]1C(N)=O [peptide 22] (Ac-QTE[F2Pmp]ATIKHP-NH2)
IC50 [1]: > 51200 nM
inhibitory activity against SHP2, in words [1]: loss of inhibitory activity
